Patent publication US20140243281A1, “BILE ACID RECYCLING INHIBITORS FOR TREATMENT OF PEDIATRIC CHOLESTATIC LIVER DISEASES” (Lumena Pharmaceuticals, Inc., priority 2011, published 2014)
Where two headings read alike, the source gives them in different places. Marks after values point to notes of the source that are not given here. Each block holds one molecule with its values, some of them ahead of it.

Columns and labels:
[1] = tested on: children and adolescents under the age of eighteen; assay: Fasting serum bile acid and morning post-prandial peak in pediatric subjects; assay type: in vivo, human; conditions: QD in the morning
Method: (§1) LUM001 has been administered to forty patients under the age of 18 years old. […] The drug was administered once-a-day (QD) in the morning for fourteen days. […] These doses are similar to those using to treat children with cholestatic diseases.
The efficacy of LUM001 was determined by measuring total serum bile acids after eight days of dosing in children and adolescents under the age of eighteen. Thirty minutes before the next drug administration, at approximately 8 am in the morning, serum bile acid levels were measured. The child had refrained from food for 12 hours prior to this sample thus providing a fasted level of serum bile acid. After breakfast, serum bile acids were measured for up to the next 4 hours (8 am to noon) and the peak serum bile acid concentration noted.

[2] = tested on: healthy, adult subjects; assay: Phase 1 ascending multiple oral doses in healthy subjects: serum and fecal bile acid analysis; assay type: in vivo, human; conditions: 28 days
Method: This Phase 1 study was a randomized, double-blind, placebo-controlled study of ascending multiple oral doses of LUM001 in healthy, adult subjects. This study was conducted at a single center. There were 13 LUM001 dosing panels: 10, 20, 60, 100, and 20 mg every morning (qAM) (2) (i.e., the regimen was tested a second time in the study), 5 mg every evening (qPM), 0.5, 1, 2.5, 5, 2.5 (2), 5 (2), and 0.5 to 5 mg qAM dose titration. Most of the dosing panels included subjects treated with matching placebo. Shown in the graphs are data from the 0.5 (n=16), 1.0 (n=8), 2.5 (n=8), 5.0 (n=8) and 10 (n=8) mg dosing groups. […]
SBA were analyzed as part of the routine clinical analysis of the serum samples collected at each time point.
Fecal samples were collected for all panels except the dose-titration panel, 2.5 (2) and 5 mg (2), on Days 9 through 14 and 23 through 28 (data shown in FIG. 4). Twenty-four hour FBA excretions were quantified by Pharmacia for Days 9 through 14 and 23 through 28. […] The weight of each 24-hour fecal collection was recorded on the CRFs. […]
An aliquot for each 24-hour fecal sample collected on Days 23 through 28 was combined, homogenized, and analyzed for bile acid species concentrations by ANAPHARM. The fecal bile acid species evaluated include chenodeoxycholic acid, cholic acid, deoxycholic acid, and lithocholic acid.

[3] = Pharmacokinetics (systemic exposure) of LUM001 in pediatric subjects; assay type: in vivo, human; conditions: for concentration at 8 day: human, serum, read-out: Average serum drug exposure
Method: as §1

[4] = tested on: Male beagle dogs; assay: Duration of action on dog serum bile acids, Method 1: two meals for extended SBA elevation; assay type: in vivo; conditions: for Serum Bile Acid, Mean: full meal at 0 hr, dosed at 1 hr, half meal at 4 hr
Method: (§2) Test compound: LUM001-Form I
(§3) LUM001 was dissolved in water at concentrations that required the administration of 0.2 ml/kg of solution. Solutions were placed into gelatin capsules, Torpac Inc., size 13 Batch 594, East Hanover N.J., and administered orally.
(§4) Male beagle dogs were obtained from Covance Research Products, Cumberland Va. or Marshall Farms USA, Inc., North Rose N.Y. A total of 20 dogs, 1 to 5 years old, 6.8 to 15.6 kg body weight, were used in these experiments. The dogs were conditioned to a 12 hour light/dark cycle and maintained on a feeding restriction of 1 hour per day access to food (Richman Standard Certified Canine Diet #5007, PMI Nutrition, Inc., St Louis Mo.) from 7 to 8 AM. They were trained to eat a special meal promptly within 20 minutes when presented (1 can. 397 g, Evanger's 100% Beef for Dogs, Evanger's Dog and Cat Food Co., Inc., Wheeling Ill., mixed with 50 g of sharp cheddar cheese.).
(§5) SBA was measured by an enzymatic assay. SBA values are expressed as μg of total bile acids/ml of serum.
To estimate the details of this plateau, 6 dogs were given a test meal and blood samples for SBA measurement were collected at −30, 0, 30, 60, 65, 70, 80, 90, 120, 180, 240, 360, 480, 720, 1410 and 1440 minutes from the time of feeding. Any remaining food was removed 20 min after it was first presented to the dogs. To establish a method for extending the elevated plateau of SBA, 6 dogs were given the meal at 0 hr and an additional ½ size meal again 4 hr after their first meal. Blood samples were taken at 0, 1, 2, 3, 4, 4.5, 6, 7 and 8 hr. The curves for SBA level vs time obtained in these experiments were used as references for determining blood sampling times in experiments with LUM001. Wherever possible, experimental design permitting, in experiments with test compound, each dog served as its own simultaneous control, and the mean 1 hr SBA value served as the reference to which all other mean values were compared.
In dogs a single experimental meal produces a postprandial rise in SBA that is elevated to a peak at 1 hour after feeding and constant for an additional 3 hours. Previous experiments (2) indicate that LUM001 remains active for more than 4.5 hours. To measure the duration of action of an ASBT inhibitor using postprandial SBA levels requires that in the control situation the SBA levels remain elevated and constant for the entire period of compound action, or that the compound be administered long before the postprandial rise occurs, and remain active in the empty digestive system for long periods before feeding. Accordingly, two alternative methods were used to provide a window of constant SBA elevation that could be used to measure the duration of action of ASBT inhibitors.
[…] At 4 hours after the meal was offered, a second meal of ½ the size of the first meal was offered. It too was consumed as promptly and thoroughly as the first meal, and provided an extended, constant SBA plateau. Blood samples for SBA measurement were taken at 0, 1, 1.5, 2, 4, 4.5, 5, 5.5, 6, 6.5, 7, 7.5 and 8 hours from the time of offering the first meal. Mean SBA levels were compared to the mean SBA level at 1 hour, each dog serving as its own control.
All animals were fed a full meal at 0 hour, dosed orally with the compound at 1 hour and then fed an additional one-half meal at 4 hours. *=p<0.05 compared to the mean value in the same curve at 1 hour by two-tailed paired two-sample t-test.

[5] = tested on: treated subjects aged 10-17; assay: Pediatric multiple-dose study, tolerability; assay type: in vivo, human; conditions: 2 weeks daily up to 5 mg q.d.; 39 treated subjects aged 10-17
Excerpt: (39 treated subjects aged 10-17).

[6] = tested on: Male beagle dogs; assay: Time to onset of activity on postprandial serum total bile acids in beagle dogs; assay type: in vivo; conditions: dog
Method: as §2, §3, §4, §5
To estimate the details of this plateau, 6 dogs were given a test meal and blood samples for SBA measurement were collected at −30, 0, 30, 60, 65, 70, 80, 90, 120, 180, 240, 360, 480, 720, 1410 and 1440 minutes from the time of feeding. Any remaining food was removed 20 min after it was first presented to the dogs. […]

[7] = tested on: Male ZDF rats; assay: Plasma bile acid levels of ZDF rats after ascending doses of SC-435 and LUM002; assay type: in vivo, rat; conditions: ZDF rats n=4; all doses (SC-435 1, 10, 30 mg/kg; LUM002 0.3, 1, 3, 10, 30 mg/kg) oral gavage twice a day, 2 weeks
Method: FIG. 2. Plasma bile acid levels of ZDF rats after administration of ascending doses of SC-435 and LUM002. Male ZDF rats (n=4) were administered vehicle, SC-435 (1, 10 or 30 mg/kg) or LUM002 (0.3, 1, 3, 10 or 30 mg/kg) by oral gavage twice a day for 2 weeks. Plasma bile acid levels were determined at the end of the second week. Data are expressed as mean values±SEM.
Male ZDF rats (n=4) were administered vehicle, SC-435 (1, 10 or 30 mg/kg) or LUM002 (0.3, 1, 3, 10 or 30 mg/kg) by oral gavage twice a day for 2 weeks. Plasma bile acid levels were determined at the end of the second week. […] Data are expressed as mean values±SEM.

[8] = tested on: Male Zucker diabetic fatty rats (ZDF/GmiCrl-fa/fa); assay: Fecal bile acid excretion and plasma bile acid concentrations in ZDF rats given 264W94; assay type: in vivo, rat; conditions: 2 weeks
Method: Male Zucker diabetic fatty rats (ZDF/GmiCrl-fa/fa) were purchased from Charles River (Raleigh, N.C.) and housed under controlled conditions (12:12 light-dark cycle, 24° C. and 50% relative humidity) with free access to rodent food (Purina 5008, Harlan Teklad, Indianapolis, Ind.). All rats arrived at seven weeks of age (±3 days). After a one-week acclimation period, rats were anesthetized with isoflurane (Abbott Laboratories, IL) and tail-vein blood samples were collected at 9 am without fasting. Blood glucose levels were measured using a glucometer (Bayer, Leverkusen, Germany). In order to ensure balanced treatment groups, ZDF rats were assigned to six treatment groups based upon baseline glucose: vehicle (0.5% HPMC, 0.1% Tween80) and five doses of 264W94 (0.001, 0.01, 0.1, 1, 10 mg/kg). All treatments were given via oral gavage twice a day and animals were followed for two weeks with blood samples collected from tail vein at the end of each week at 9 am without fasting. Fecal samples were collected for 24 hours during the second week of treatment.
Non-esterified fatty acids (NEFA), bile acids, and bile acids in fecal extraction were measured using the Olympus AU640 clinical chemistry analyzer (Beckman Coulter, Irving, Tex.).

- Systemic absorption (levels of systemic exposure measured on day eight) ([3]; children, once-a-day in the morning for fourteen days): minimally absorbed
- concentration at 8 day ([3]; Subject 0308, 1.0 mg, 28.9 μg/kg QD): 0 ng/mL
- concentration at 8 day ([3]; Subject 0410, 2.5 mg, 42.0 μg/kg QD): 0 ng/mL
- concentration at 8 day ([3]; Subject 0510, 5.0 mg, 168.4 μg/kg QD): 0 ng/mL
SMILES: CCCCC1(CCCC)CS(=O)(=O)c2ccc(N(C)C)cc2[C@@H](c2ccc(OCc3ccc(C[N+]45CCN(CC4)CC5)cc3)cc2)[C@H]1O [LUM001]
- Decrease of fasting serum bile acid level versus placebo patients [1]: 24%
- Decrease of post-prandial peak serum bile acid level versus placebo patients [1]: 23%
- Fecal bile acids [2]: significant increase
- Serum bile acids [2]: significant reduction
- Serum Bile Acid, Mean ([4]; 0 hr): 1.4 µg/mL
- Serum Bile Acid, Mean ([4]; 1 hr): 9.2 µg/mL
- Serum Bile Acid, Mean ([4]; 1.5 hr): 9.6 µg/mL
- Serum Bile Acid, Mean ([4]; 2 hr): 6.7 µg/mL
- Serum Bile Acid, Mean ([4]; 4 hr): 5.1* μg/ml
- Serum Bile Acid, Mean ([4]; 4.5 hr): 6.4 µg/mL
- Serum Bile Acid, Mean ([4]; 5 hr): 7.0 µg/mL
- Serum Bile Acid, Mean ([4]; 6 hr): 7.0 µg/mL
- Serum Bile Acid, Mean ([4]; 7 hr): 7.4 µg/mL
- Serum Bile Acid, Mean ([4]; 8 hr): 6.5 µg/mL
- Time LUM001 remains active ([4]; previous experiments): more than 4.5 hours
- Tolerability [5]: well-tolerated
- Time after dosing to significantly lowered SBA levels ([6]; 0.05 mg/kg oral): 1 to 2 h
- Serum Bile Acid, Mean ([6]; 1 mg/kg p.o., 0 min from feeding, fed at 0 min, dosed at 60 min): 2.8 µg/mL

SMILES: CCCCC1(CCCC)CS(=O)(=O)c2ccc(N(C)C)cc2[C@@H](c2ccc(OCCCC[N+]34CCN(CC3)CC4)cc2)[C@H]1O.CS(=O)(=O)[O-] [SC-435, 1-[4-[4-[(4R,5R)-3,3-dibutyl-7-(dimethylamino)-2,3,4,5-tetrahydro-4-hydroxy-1,1-dioxido-1-benzothiepin-5-yl]phenoxy]butyl]-4-aza-1-azoniabicyclo[2.2.2]octane methanesulfonate salt, reference compound]
- Plasma bile acid levels [7]: decreased

SMILES: CCCC[C@]1(CC)CS(=O)(=O)c2ccc(N(C)C)cc2[C@@H](c2cccc(NC(=O)N[C@@H]3O[C@H](COS(=O)(=O)[O-])[C@@H](O)[C@H](OCc4ccccc4)[C@H]3O)c2)[C@H]1O.[K+] [LUM002]
- Plasma bile acid levels [7]: decreased

SMILES: CCCC[C@]1(CC)CS(=O)(=O)c2cc(OC)c(OC)cc2[C@@H](c2ccccc2)N1 [Compound 264W94]
- Fecal bile acid concentrations elevated compared to vehicle treated rats ([8]; 0.001-10 mg/kg oral gavage twice a day, 24 h feces in second week): up to 6.5 fold
- ED50 for elevation of fecal bile acid concentrations ([8]; oral gavage twice a day): 0.17 mg/kg
- Fecal NEFA ([8]; oral gavage twice a day): slightly increased
- Plasma bile acid concentrations ([8]; oral gavage twice a day): decreased dose-dependently
